Laboratory results as given in patent US20090117563A1, “Identification of TRPML3 (MCOLN3) as a Salty Taste Receptor and Use in Assays for Identifying Taste (Salty) Modulators and/or Therapeutics that Modulate Sodium Transport, Absorption or Excretion and/or Aldosterone and/or Vasopressin Production or Release” (priority 2007, published 2009).

Target: T1, human TRPML3 (Homo sapiens, UniProt Q8TDD5)
T1 construct: expressed in transfected cells
T1 sequence (Q8TDD5 1-553): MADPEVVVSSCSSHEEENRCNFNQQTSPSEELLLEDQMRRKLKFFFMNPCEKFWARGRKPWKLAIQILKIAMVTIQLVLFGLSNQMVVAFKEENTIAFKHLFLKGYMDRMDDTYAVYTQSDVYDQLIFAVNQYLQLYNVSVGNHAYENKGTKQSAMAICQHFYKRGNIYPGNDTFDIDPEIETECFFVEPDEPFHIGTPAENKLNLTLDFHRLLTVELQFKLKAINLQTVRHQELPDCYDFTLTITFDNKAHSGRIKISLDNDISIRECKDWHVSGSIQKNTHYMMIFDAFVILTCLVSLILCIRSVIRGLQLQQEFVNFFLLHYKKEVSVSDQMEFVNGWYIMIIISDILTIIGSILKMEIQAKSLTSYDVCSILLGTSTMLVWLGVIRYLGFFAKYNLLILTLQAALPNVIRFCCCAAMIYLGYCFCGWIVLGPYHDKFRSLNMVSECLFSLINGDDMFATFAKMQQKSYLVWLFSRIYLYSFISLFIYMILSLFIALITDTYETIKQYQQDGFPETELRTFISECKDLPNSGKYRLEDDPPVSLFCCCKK
Experiment: Two-electrode voltage clamp in oocytes injected with human TRPML3 cRNA
Format: cell-based
Settings: 300 uM gadolinium (GdCl3) solution; −100 to +60 mV
Procedure: Twenty-four to forty-eight hours following microinjection of 10-25 ng human TRPML3 cRNA, TRPML3 function is measured in oocytes using the two-electrode voltage clamp technique on an OpusXpress 6000A parallel oocyte voltage clamp system (MDS Analytical Technologies). The two-electrode voltage clamp technique is an electrophysiology method that measures the macroscopic electrical current flowing across the entire oocyte membrane though protein channels (Stuhmer, Methods in Enzymology (1992) 207: 319-339). Oocytes are impaled with a voltage-sensing electrode and a current-sensing electrode; the voltage, or potential difference across the oocyte membrane, is clamped to a particular value using the voltage-sensing electrode and the current, or the flow of ions across the oocyte membrane, required to maintain that voltage is measured using the current-sensing electrode. […]
If the compound functions as a TRPML3 enhancer, the current passing through TRPML3 channels in the oocyte membrane increases (becomes more negative). […] To quantitate the effect of a compound on TRPML3 function, the following formula is used: […]
This value corresponds to the magnitude of the current change due to compound divided by the magnitude of the current change due to NMDG multiplied by −100%. […] All four oocytes expressed TRPML3, as evidenced by the inhibitory effect of NMDG on measured oocyte currents. […]

[Cl][Gd]([Cl])[Cl] [gadolinium, gadolinium chloride]
effect on TRPML3 current and slope of the I/V curve: blocks TRPML3 current and decreases the slope of the I/V curve
